# In publication PMC8584011, “Immunomodulatory Lectin-like Peptides for Fish Erythrocytes-Targeting as Potential Antiviral Drug Delivery Platforms” (International Journal of Molecular Sciences, 2021):
# What was measured:
# rainbow trout RBCs [1] = experiment: Antiviral gene expression in RBCs by RT-qPCR; type: cell-based, rainbow trout (Oncorhynchus mykiss); conditions: 50 µM peptide, 6 h post-treatment at 14 °C, normalized to ef1α, relative to untreated RBCs
# Procedure: Figure 3 Antiviral immunomodulation of the peptides in rainbow trout RBCs. Antiviral gene (ifit5, mx1-3, nkef, and vig1) expression quantified by RT-qPCR in RBCs at 6 h post-treatment (hpt) with 50 µM of each peptide. Gene expression was normalized against ef1α and relativized to control cells (RBCs untreated) (red line). Data represent the mean ± standard deviation (SD), n = 4. Mann–Whitney test was performed (* p < 0.05).
# To evaluate the possible antiviral immunomodulatory effects of the peptides, ficoll-purified RBCs (10^6 cells/well) were incubated with 50 µM of 4341, 4342, 4343 Rhd-labeled peptides for 6 h at 14 °C. After that, RBCs were washed, and samples were stored in buffer for RNA extraction and RT-qPCR analysis (Figure 5).
# The E.Z.N.A.® Total RNA Kit (Omega Bio-Tek Inc., Norcross, GA, USA) was used for RNA isolation according to the manufacturer’s instructions. Subsequent DNAse treatment was done using TURBO™ DNase (Ambion, Thermo Fisher Scientific, Waltham, MA USA) to eliminate possible residual genomic DNA. RNA was quantified with a NanoDrop Spectrophotometer (Nanodrop Technologies, Wilmington, DE, USA). Then, cDNA synthesis from RNA was performed using M-MLV reverse transcriptase (Invitrogen, Thermo Fisher Scientific) as previously described.
# To evaluate the gene expression of RBCs treated with 50 µM of the three Rhd-labeled peptides, RT-qPCR was carried out using the QUANTSTUDIO 3 System (Applied Biosystems, Thermo Fisher Scientific Inc.). Gene expression was analyzed by the 2^–ΔΔCt method. The ef1α gene was used as endogenous control.
# rainbow trout RBCs [2] = experiment: In vitro binding of Rhd-labeled peptides to RBCs, flow cytometry (iMFI); type: cell-based, rainbow trout (Oncorhynchus mykiss); conditions: 100 µM Rhd-labeled peptide, 90 min at 14 °C, 10^5 cells/well, mean ± SD n = 3, ranking of peptides
# Procedure: In order to evaluate the binding of the peptides for RBCs, we carried out a dose-response assay using a concentration range from 25 to 100 µM. The binding of the Rhodamine (Rhd)-labeled peptides was evaluated by means of flow cytometry and calculated as the integrated median fluorescence intensity (iMFI), which is computed by multiplying the relative frequency (% positive) of cells with the median fluorescence intensity (MFI) of that population. […] Besides, hemagglutination was not observed at the concentrations of peptides used (Supplementary Figure S1). Cell toxicity was not observed neither in vitro nor in vivo at the maximum concentration of peptides used (Supplementary Figure S2).
# Figure 1 Peptide binding to rainbow trout RBCs in vitro, evaluated by means of flow cytometry. (a) Integrated median fluorescence intensity (iMFI) (% positive cells × MFI) of rainbow trout RBCs treated with different peptide concentrations, 90 min after incubation, analyzed by flow cytometry. Data represent the mean ± standard deviation (SD), n = 3. […]
# Ficoll-purified RBCs (10^5 cells/well) were treated with 25, 50, and 100 µM of 4341, 4342, 4343 Rhd-labeled peptides, and incubated for 90 min at 14 °C. Then, RBCs were washed with 200 µL of RPMI 2% FBS and analyzed by flow cytometry, fluorescent microscopy, and confocal microscopy as described below (Figure 5). […]
# rainbow trout RBCs [3] = experiment: In vivo binding of peptides to RBCs after i.v. injection, flow cytometry (iMFI); design: species or system rainbow trout (Oncorhynchus mykiss); conditions: i.v. injection of 100 µM peptide in 50 µL, peripheral blood at 3 hpi, mean ± SD n = 3, ranking of peptides
# Procedure: Figure 4 Peptide binding to rainbow trout RBCs in vivo, by means of flow cytometry. (a) Integrated median fluorescence intensity (iMFI) (% positive cells × MFI) of RBCs from blood of rainbow trout injected intravenously with the three selected peptides, 3 hpi with 100 µM of each peptide, analyzed by flow cytometry. Data represent the mean ± standard deviation (SD), n = 3. Kruskal–Wallis test with Dunn’s multiple comparison test was performed (p < 0.05). C means control RBCs. (b) Representative images of RBCs from blood of rainbow trout injected intravenously with the three selected peptides, 3 hpi with 100 µM of each peptide. The images were taken with the IN Cell Analyzer 6000 Cell Imaging system at 40× magnification. Peptides are labeled with Rhd (red). […]
# Juvenile rainbow trout (7–10 g) were anesthetized with tricaine methanesulfonate, (Sigma-Aldrich, Madrid, Spain) (40 mg/L) and injected intravenously (i.v) with 100 µM of 4341, 4342, 4343 Rhd-labeled peptides in 50 µL of RMPI 2% FBS using insulin syringes. […] Then, blood samples were evaluated by means of flow cytometry and fluorescent microscopy as described below (Figure 6).
# RBCs treated in vitro with the Rhd-labeled peptides and blood samples from individuals of rainbow trout injected with the three Rhd-labeled peptides were analyzed by flow cytometry using a FACS Canto II flow cytometer (BD Biosciences, Madrid, Spain). […]
# rabbit RBCs = conditions: cited from earlier work
# Excerpt: (§1) Among the identified peptides in the literature, we selected three peptides based on their reported affinity to bind nucleated RBCs or mammalian RBCs. […] This peptide will be named in this article as 4341. Another selected peptide is a small peptide with lectin-like behavior, called odorranalectin (hereafter referred ...
# human RBCs = conditions: cited from earlier work
# Excerpt: as §1
# [4] = cited from earlier work
# Excerpt: In addition, our selected peptides were mainly found inside RBCs, instead of at the surface of the RBCs, as observed by confocal microscopy. […] In this contex ...
# rainbow trout RBCs [5] = experiment: Confocal microscopy of peptide-RBC binding / presence inside the cell; type: cell-based, rainbow trout (Oncorhynchus mykiss); conditions: 90 min incubation with Rhd-labeled peptides, Hoechst and CellMask Green staining
# Procedure: Figure 2 Volume 3D reconstruction of the visualization of the peptides binding to rainbow trout RBCs. Rhd-labeled peptides are represented in red, nuclei were stained with Hoescht and are represented in blue, and cell membrane was stained using CellMask Green and is represented in beige. The images were taken at 63× magnification. Confocal images were processed using the ZEN 3.2 (Blue edition). Volume rendering was performed with IMARIS v9.3. Upper images represent plan view and lower images represent perspective view.
# Confocal microscopy was performed to evaluate peptide-RBCs binding in vitro. After 90 min of incubation with Rhd-labeled peptides, RBCs were washed, and nuclei were stained with Hoechst (1 μg/mL) (Sigma-Aldrich) and membrane was stained with CellMask Green (5 μg/mL) (Thermo Fischer Scientific). Images were taken with a Zeiss LSM900 with Airyscan 2 and analyzed with ZEN 3.2 (Blue edition) software (Zeiss, Oberkochen, Germany). Volume rendering was performed using IMARIS Software v9.3 (Bitplane, Zurich, Switzerland).
substance,measurement,setting,value
"Rhd-YASPKCFRYPNGVLACT [compound 4342, odorranalectin, Rhd-labeled small peptide with lectin-like behavior, called odorranalectin]",mx1-3 gene expression,rainbow trout RBCs [1]; n = 4,slight and not statistically significant upregulation
same,ifit5 gene expression,"rainbow trout RBCs [1]; n = 4, Mann–Whitney p < 0.05",statistically significantly upregulated
same,nkef gene expression,"rainbow trout RBCs [1]; n = 4, not statistically significant",upregulated
same,Binding to RBCs (iMFI = % positive cells × MFI),rainbow trout RBCs [2],highest binding
same,Binding to RBCs in vivo (iMFI = % positive cells × MFI),rainbow trout RBCs [3],highest iMFI
same,Binding to rabbit RBCs,rabbit RBCs,bind
same,Binding to human RBCs,human RBCs,bind
same,Stability in circulation,[4],high stability in circulation
same,Presence of peptide inside the cell,rainbow trout RBCs [5],higher
